Several values for one entry are separate records, joined by “and”; a condition that tells them apart may be missing. Equal values may be shown once.
System: normal rats
Assay: Cardiorenal actions of bolus ANP, CNP, VNP in anesthetized normal rats
Assay type: in vivo, rat
[1] = normal rats, Recovery (after 30 minute washout)

## CC[C@H](C)[C@@H]1NC(=O)[C@H](CCCNC(=N)N)NC(=O)[C@H](CC(=O)O)NC(=O)[C@H](CCSC)NC(=O)[C@H](CCCNC(=N)N)NC(=O)CNC(=O)CNC(=O)[C@H](Cc2ccccc2)NC(=O)[C@@H](NC(=O)[C@H](CO)NC(=O)[C@H](CO)NC(=O)[C@H](CCCNC(=N)N)NC(=O)[C@H](CCCNC(=N)N)NC(=O)[C@H](CC(C)C)NC(=O)[C@@H](N)CO)CSSC[C@@H](C(=O)N[C@@H](CC(N)=O)C(=O)N[C@@H](CO)C(=O)N[C@@H](Cc2ccccc2)C(=O)N[C@@H](CCCNC(=N)N)C(=O)N[C@@H](Cc2ccc(O)cc2)C(=O)O)NC(=O)CNC(=O)[C@H](CC(C)C)NC(=O)CNC(=O)[C@H](CO)NC(=O)[C@H](CCC(N)=O)NC(=O)[C@H](C)NC(=O)CNC1=O [ANP, Atrial natriuretic peptide]
Normal rats, 5 μg/kg bolus
  HR heart rate: 353 ± 14 beats/minute
  MAP mean arterial pressure: 97 ± 12 mmHg
  RAP right atrial pressure: −2.3 ± 0.8 mmHg
  UKV urine potassium excretion: 10.3 ± 3.5 µmol/min
  UNaV urine sodium excretion: 13.2 ± 3.5 µmol/min
  UV urine volume: 79 ± 10 µL/min
  UcGMPV urine cGMP volume: 605 ± 151 pmol/min
Normal rats, 50 μg/kg bolus
  HR heart rate: 355 ± 19 beats/minute
  MAP mean arterial pressure: 69 ± 7*+ mmHg
  RAP right atrial pressure: −3.8 ± 0.8*+ mmHg
  UKV urine potassium excretion: 24.4 ± 8.7 µmol/min
  UNaV urine sodium excretion: 68.2 ± 15.7*+ μmol/minute
  UV urine volume: 341 ± 41*+ μl/minute
  UcGMPV urine cGMP volume: 2580 ± 505*+ pmol/minute
[1]
  HR heart rate: 368 ± 23 beats/minute
  MAP mean arterial pressure: 92 ± 11*¶ mmHg
  PcGMP plasma cGMP: 3.2 − 63¶ pmol/ml
  RAP right atrial pressure: −0.8 ± 0.9¶ mmHg
  UKV urine potassium excretion: 2.4 ± 0.1 µmol/min
  UNaV urine sodium excretion: 8.9 ± 3.5¶ μmol/minute
  UV urine volume: 48 ± 14¶ μl/minute
  UcGMPV urine cGMP volume: 105 ± 63¶ pmol/minute

## C-type natriuretic peptide (GLSKGCFGLKLDRIGSMSGLGC) [CNP]
rat, in vivo
  HR heart rate: 363 ± 19 beats/minute and 365 ± 19 beats/minute and 363 ± 16 beats/minute
  MAP mean arterial pressure: 100 ± 12 mmHg and 87 ± 9*+ mmHg and 104 ± 11*¶ mmHg

## vasonatrin peptide [VNP]
rat, in vivo
  HR heart rate: 393 ± 20 beats/minute and 408 ± 25 beats/minute and 390 ± 20 beats/minute
  MAP mean arterial pressure: 93 ± 15 mmHg and 79 ± 15*+ mmHg and 93 ± 15*¶ mmHg
